{
  "source": "patent US20250314661A1",
  "about": "“CHEMIGENETIC TOOLS AND METHODS OF CONTROLLING AND ASSESSING PROTEIN PHASE SEPARATION” (THE REGENTS OF THE UNIVERSITY OF CALIFORNIA, priority 2022, published 2025)",
  "molecules": {"B1": {"name": "FLAG-tagged CEL (109 amino acid CRBN C-terminal domain) (other)", "chain": "SLCCKQCQETEITTKNEIFSLSLCGPMAAYVNPHGYVHETLTVYKACNLNLIGRPSTEHSWFPGYAWTVAQCKICASHIGWKFTATKKDMSPQKFWGLTRSALLPTIPD", "notes": "Expressed in HEK293 cells; also called CRBN CTD; not shown: FLAG tag"}},
  "key": {"other cells": {"tested_on": "other cells", "details": "cells other than multiple myeloma; Siu et al. (2017); cited from earlier work"}, "[1]": {"molecular_target": "MYCN fused to FRB and mEGFP (UniProt P04198)", "sequence (P04198 other isoform, or with tags, fused parts or gaps)": "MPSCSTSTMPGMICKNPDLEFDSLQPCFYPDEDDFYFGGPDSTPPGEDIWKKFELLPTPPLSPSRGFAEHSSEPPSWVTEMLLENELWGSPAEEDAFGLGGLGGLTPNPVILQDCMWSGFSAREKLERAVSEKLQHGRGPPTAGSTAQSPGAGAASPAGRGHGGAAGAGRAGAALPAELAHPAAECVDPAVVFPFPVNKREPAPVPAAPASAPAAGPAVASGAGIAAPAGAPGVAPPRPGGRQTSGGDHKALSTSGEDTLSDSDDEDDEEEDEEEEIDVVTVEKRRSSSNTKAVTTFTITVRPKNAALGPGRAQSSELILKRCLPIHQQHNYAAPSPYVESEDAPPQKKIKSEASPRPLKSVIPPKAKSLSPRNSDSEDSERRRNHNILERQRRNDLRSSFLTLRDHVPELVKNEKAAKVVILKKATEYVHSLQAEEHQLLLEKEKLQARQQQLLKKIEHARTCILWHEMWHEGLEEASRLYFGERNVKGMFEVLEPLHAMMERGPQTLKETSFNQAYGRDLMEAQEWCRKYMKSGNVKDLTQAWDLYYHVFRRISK", "experiment": "cell-based or functional assay"}, "ERK": {"tested_on": "ERK", "experiment": "ERK activity reporter ERK-KTR translocation after lenalidomide-induced SOScat translocation", "text": "The relocated SOScat then activates Ras, which leads to ERK activation via the MAPK pathway.\nThe presence of SOS in the PM can activate Ras and promote ERK activity via the MAPK pathway (FIG. 2C, left). For targeting SOS to the PM, ZIF was first fused to the CAAX motif tagged with a red fluorescent protein (RFP). Next, CEL was fused to the catalytic domain of SOS (referred to as SOScat), which was tagged with a near infrared fluorescent protein IFP2 that helps visualizing SOScat translocation (FIG. 2C, left). […] To determine whether SOScat translocation activates ERK, a GFP translocation-based ERK activity reporter called ERK-KTR was used, which translocates from the nucleus to the cytoplasm upon activation of endogenous ERK (Regot et al. (2014) Cell 157:1724-1734)."}, "Ctgf": {"tested_on": "Ctgf", "experiment": "RT-qPCR of YAP target gene Ctgf mRNA", "format": "cell-based", "details": "cells transfected with CEL-EGFP-YAP without the ZIF construct", "description": "FIG. 6A-D show representative images illustrating that the SparkDrop-Y AP condensates produce nascent RNAs and upregulate a direct target gene of Y AP. […] The cells were short labeled with EU for 1 hour. Arrows point to the induced YAP condensates and the colocalized nascent RNA droplets. Arrowhead points to nucleoli. The nucleus marked by asterisk was not transfected with SparkDrop-YAP. […] Data are shown as meant SD (n=3).\nLastly, whether the SparkDrop-Y AP condensates upregulate mRNA levels of a YAP target gene Ctgf were determined using RT-qPCR. […] As a control, cells were incubated with DMSO. […] Next, a positive control was conducted by incubating cells with sorbitol, which is known to induce osmotic stress and drive YAP condensate formation. […] Lastly, cells were transfected with CEL-EGFP-Y AP (without the ZIF construct), and incubated with lenalidomide or DMSO."}, "DDB1": {"molecular_target": "T1, DDB1 (UniProt Q16531 1-1140)", "T1 construct": "Tested both as endogenous protein of HEK293 cells and with exogenous over-expression; also called endogenous DDB1; exogenous DDB1", "T1 sequence (Q16531 whole entry)": "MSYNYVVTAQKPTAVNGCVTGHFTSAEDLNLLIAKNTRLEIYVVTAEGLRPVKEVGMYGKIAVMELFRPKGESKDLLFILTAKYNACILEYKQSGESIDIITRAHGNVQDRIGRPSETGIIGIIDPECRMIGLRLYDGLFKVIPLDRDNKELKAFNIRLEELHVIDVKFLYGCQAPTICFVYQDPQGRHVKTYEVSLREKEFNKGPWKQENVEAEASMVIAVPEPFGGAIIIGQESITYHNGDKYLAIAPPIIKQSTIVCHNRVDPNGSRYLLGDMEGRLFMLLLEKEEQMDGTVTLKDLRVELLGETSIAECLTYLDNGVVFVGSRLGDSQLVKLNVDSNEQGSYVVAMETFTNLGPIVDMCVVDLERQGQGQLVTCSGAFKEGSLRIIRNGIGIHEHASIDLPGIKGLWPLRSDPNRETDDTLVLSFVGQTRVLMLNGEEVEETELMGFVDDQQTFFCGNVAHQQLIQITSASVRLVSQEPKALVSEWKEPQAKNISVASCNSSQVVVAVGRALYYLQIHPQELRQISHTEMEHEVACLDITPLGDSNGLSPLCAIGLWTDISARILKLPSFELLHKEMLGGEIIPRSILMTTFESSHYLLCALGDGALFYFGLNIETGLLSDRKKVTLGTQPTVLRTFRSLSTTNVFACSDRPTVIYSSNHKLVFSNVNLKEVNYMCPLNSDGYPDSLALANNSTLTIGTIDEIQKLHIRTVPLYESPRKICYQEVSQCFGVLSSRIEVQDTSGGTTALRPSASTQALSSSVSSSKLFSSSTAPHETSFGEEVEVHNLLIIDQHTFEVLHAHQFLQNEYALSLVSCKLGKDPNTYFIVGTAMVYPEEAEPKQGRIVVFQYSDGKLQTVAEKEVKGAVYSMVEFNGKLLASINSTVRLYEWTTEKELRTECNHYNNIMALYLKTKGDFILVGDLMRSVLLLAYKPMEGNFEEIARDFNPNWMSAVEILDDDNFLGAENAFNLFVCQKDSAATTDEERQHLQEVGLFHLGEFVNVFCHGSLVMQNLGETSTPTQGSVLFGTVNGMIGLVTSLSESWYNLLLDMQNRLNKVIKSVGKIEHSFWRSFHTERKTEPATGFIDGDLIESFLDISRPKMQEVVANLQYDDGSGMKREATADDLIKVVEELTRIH", "experiment": "FLAG pull-down and Western blot against DDB1, HEK293 cells, with or without exogenous DDB1"}},
  "data": [
    {"molecule": "O=C1CCC(N2C(=O)c3ccccc3C2=O)C(=O)N1", "note": "(stereo not shown) [thalidomide]", "values": [
      {"measurement": "toxicity in other cells", "setting": "other cells", "value": "no or little toxicity"}
    ]},
    {"molecule": "SUMO-mCherry-FKBP (from UniProt P62942 2-108)", "values": [
      {"measurement": "dissolution of MYCN condensates after addition of rapamycin", "setting": "[1]", "value": 10, "unit": "min"}
    ]},
    {"molecule": "Nc1cccc2c1CN(C1CCC(=O)NC1=O)C2=O", "note": "(stereo not shown) [lenalidomide]", "values": [
      {"measurement": "ERK-KTR translocation", "setting": "ERK; cells expressing CEL-IFP2-SOScat and ZIF-RFP-CAAX", "value": "translocated from the nucleus to the cytoplasm"},
      {"measurement": "ERK-KTR translocation, control without ZIF", "setting": "ERK; cells expressing CEL-IFP2-SOScat without ZIF", "value": "did not induce ERK-KTR translocation"},
      {"measurement": "toxicity in other cells", "setting": "other cells", "value": "no or little toxicity"},
      {"measurement": "Ctgf mRNA, control without ZIF construct", "setting": "Ctgf", "value": "not upregulated"}
    ]},
    {"molecule": "B1", "values": [
      {"measurement": "binding result", "setting": "DDB1", "value": "no binding"}
    ]}
  ]
}
